Data from the NIST ThermoML archive (doi:10.1016/j.tca.2016.09.005).
± gives the expanded uncertainty stated by the source.

What was measured:
[1] = refractive index (Na D-line) (dimensionless); details: 293.15 K; 101.33 kPa; Liquid; Standard Abbe refractometry
[2] = Liquid; for speed of sound / mass density: 100 kPa; for speed of sound: Frequency=3 MHz, Sing-around technique in a fixed-path interferometer; for mass density: Vibrating tube method; for vapor or sublimation pressure: Closed cell (Static) method
[3] = xn = mol fraction of the nth substance listed; details: 100 kPa, Liquid, x1 = 1; for speed of sound: Frequency=3 MHz, Sing-around technique in a fixed-path interferometer; for mass density: Vibrating tube method

A refractive index [1] of 1.362 ± 0.001, a speed of sound ([2]; 283.15 K) of 1196.8 ± 1.9 m/s and a mass density ([2]; 283.15 K) of 798.22 ± 0.93 kg/m3 were found for `CCO` [ethanol] in this work. It also gave a speed of sound ([2]; 293.15 K) of 1162.3 ± 1.9 m/s, a mass density ([2]; 293.15 K) of 789.7 ± 0.93 kg/m3 and a speed of sound ([2]; 303.15 K) of 1128.2 ± 1.9 m/s. It also gave a mass density ([2]; 303.15 K) of 781.09 ± 0.93 kg/m3, a speed of sound ([2]; 313.15 K) of 1094.6 ± 1.9 m/s and a mass density ([2]; 313.15 K) of 772.34 ± 0.93 kg/m3.

A speed of sound ([3]; 283.15 K) of 1196.8 ± 1.9 m/s, a mass density ([3]; 283.15 K) of 798.22 ± 0.93 kg/m3 and a speed of sound ([3]; 293.15 K) of 1162.3 ± 1.9 m/s were found for `CCO` [ethanol] + OCCCO in this work. The mass density ([3]; 293.15 K) was 789.7 ± 0.93 kg/m3, the speed of sound ([3]; 303.15 K) was 1128.2 ± 1.9 m/s and the mass density ([3]; 303.15 K) was 781.09 ± 0.93 kg/m3. For the same molecule, the speed of sound ([3]; 313.15 K) was 1094.6 ± 1.9 m/s and the mass density ([3]; 313.15 K) was 772.34 ± 0.93 kg/m3.

A refractive index [1] of 1.3285 ± 0.0009, a speed of sound ([2]; 283.15 K) of 1153.3 ± 1.7 m/s and a mass density ([2]; 283.15 K) of 800.67 ± 0.91 kg/m3 were found for `CO` [methanol] in this work. For the same molecule, the speed of sound ([2]; 293.15 K) was 1119.6 ± 1.7 m/s, the mass density ([2]; 293.15 K) was 791.28 ± 0.91 kg/m3 and the speed of sound ([2]; 303.15 K) was 1086.6 ± 1.7 m/s. The mass density ([2]; 303.15 K) was 781.84 ± 0.91 kg/m3, the speed of sound ([2]; 313.15 K) was 1054.2 ± 1.7 m/s and the mass density ([2]; 313.15 K) was 772.3 ± 0.91 kg/m3.

A speed of sound ([3]; 283.15 K) of 1153.3 ± 1.7 m/s, a mass density ([3]; 283.15 K) of 800.67 ± 0.91 kg/m3 and a speed of sound ([3]; 293.15 K) of 1119.6 ± 1.7 m/s were found for `CO` [methanol] + OCCCO in this work. The mass density ([3]; 293.15 K) was 791.28 ± 0.91 kg/m3, the speed of sound ([3]; 303.15 K) was 1086.6 ± 1.7 m/s and the mass density ([3]; 303.15 K) was 781.84 ± 0.91 kg/m3. For the same molecule, the speed of sound ([3]; 313.15 K) was 1054.2 ± 1.7 m/s and the mass density ([3]; 313.15 K) was 772.3 ± 0.91 kg/m3.

A refractive index [1] of 1.4393 ± 0.001, a speed of sound ([2]; 283.15 K) of 1659.5 ± 2.6 m/s and a mass density ([2]; 283.15 K) of 1058.85 ± 1.3 kg/m3 were found for `OCCCO` [propan-1,3-diol] in this work. For the same molecule, the speed of sound ([2]; 293.15 K) was 1636.3 ± 2.6 m/s, the mass density ([2]; 293.15 K) was 1052.61 ± 1.2 kg/m3 and the speed of sound ([2]; 303.15 K) was 1613.6 ± 2.6 m/s. It also gave a mass density ([2]; 303.15 K) of 1046.36 ± 1.2 kg/m3, a speed of sound ([2]; 313.15 K) of 1591.1 ± 2.6 m/s and a mass density ([2]; 313.15 K) of 1040.07 ± 1.2 kg/m3.

In the case of `O` [water], the refractive index [1] is reported as 1.333 ± 0.0009, the “vapor or sublimation pressure” value ([2]; 273.15 K) is reported as 0.593 ± 0.019 kPa and the “vapor or sublimation pressure” value ([2]; 283.15 K) is reported as 1.21 ± 0.038 kPa. The “vapor or sublimation pressure” value ([2]; 293.15 K) was 2.328 ± 0.071 kPa, the “vapor or sublimation pressure” value ([2]; 303.15 K) was 4.251 ± 0.13 kPa and the “vapor or sublimation pressure” value ([2]; 313.15 K) was 7.411 ± 0.22 kPa. For the same molecule, the “vapor or sublimation pressure” value ([2]; 323.15 K) was 12.4 ± 0.37 kPa, the “vapor or sublimation pressure” value ([2]; 333.15 K) was 20 ± 0.6 kPa and the “vapor or sublimation pressure” value ([2]; 343.15 K) was 31.21 ± 0.94 kPa. The “vapor or sublimation pressure” value ([2]; 353.15 K) was 47.3 ± 1.4 kPa and the “vapor or sublimation pressure” value ([2]; 363.15 K) was 69.77 ± 2.1 kPa.

A mass density ([3]; 283.15 K) of 999.68 ± 0.9 kg/m3 and a speed of sound ([3]; 313.15 K) of 1529.2 ± 1.7 m/s were found for `O` [water] + OCCCO in this work.
